According to patent US6251605A, “Yeast cells having mutations in Cav1 and uses therefor” (priority 1999, dated 2001):

Target: T1, Ste2 receptor (Saccharomyces cerevisiae, UniProt D6VTK4)
T1 construct: The wild type strain and a cav1 mutant strain, transformed with the plasmid; endogenous in cells; host or cells: S. cerevisiae wild type and cav1 mutant strains carrying the FUS1-lacZ reporter plasmid
Test: FUS1-lacZ β-galactosidase reporter assay, Ste2-mediated signaling
Type: cell-based, S. cerevisiae
Details: 30 minutes incubation
Description: In order to determine whether the CAV1 gene is involved in Ste2-mediated signaling, the effects of a cav1 mutation on the levels of FUS1-lacZ induction in response to o-factor were studied as described below. Transformants were grown to the mid-exponential phase in the medium SC without uracil. 100 μt aliquots of cultures were incubated in 96-well plates in the presence of increasing concentrations of α-factor at 30° C. for 30 minutes prior to assaying β-galactosidase activity. 20 μl of 6X Z-buffer (0.6 M sodium phosphate, pH 7.0, 60 mM KCl, 6 mM MgCl2, 1.6% (v/v) β-mercaptoethanol) containing 10 mM chlorophenolred-β-D-galactoside (CPRG) and 2.5% Triton X-100 was added to each aliquot followed by incubation at room temperature for 30-60 min. The enzymatic reactions were stopped by adding […] of 1 M sodium carbonate and A575 values were determined using a Biomek Plate Reader (Beckman).
The wild type strain and a cav1 mutant strain, transformed with the plasmid Cpl 584 encoding the FUS 1-lacZ reporter gene, were incubated in the presence of α-factor for 30 minutes prior to the β-galactosidase assay. […] Furthermore, the rate of ligand-independent endocytosis of Ste2 receptor, and of Ste3 receptor, respectively, decreased by approximately two-fold in the cav1 mutant. Therefore, an increase in Ste2β mediated signaling may be attributed to the reduced internalization of yeast GPCRs.

T1 sequence (D6VTK4 whole entry): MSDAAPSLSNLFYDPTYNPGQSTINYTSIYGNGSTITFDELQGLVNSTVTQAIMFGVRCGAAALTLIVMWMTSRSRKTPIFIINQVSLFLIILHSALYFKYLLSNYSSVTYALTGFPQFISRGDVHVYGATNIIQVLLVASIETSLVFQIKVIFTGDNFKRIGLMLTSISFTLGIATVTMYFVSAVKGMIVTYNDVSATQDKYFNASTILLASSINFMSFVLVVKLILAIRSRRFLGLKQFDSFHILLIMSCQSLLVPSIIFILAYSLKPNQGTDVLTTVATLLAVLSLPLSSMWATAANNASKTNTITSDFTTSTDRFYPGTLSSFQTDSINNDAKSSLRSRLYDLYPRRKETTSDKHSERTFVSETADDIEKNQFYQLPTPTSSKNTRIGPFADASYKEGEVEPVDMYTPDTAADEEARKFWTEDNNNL

α-factor
higher levels of ligand-induced β-galactosidase activity in mutant strain compared with wild type strain (cav1 mutant versus wild type): 50-100% | estimated EC50 values for α-factor (wild type strain versus cav1 mutant strain): virtually identical
